# Active and inactive are the calls of the source.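 The calls were made as follows: active = IC50 at or below 10 µM; inactive = IC50 above 10 µM.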
# Test system: HEK293T GAL4DBD-only luciferase reporter, luminescence counterscreen
# Assay: Gal4 DBD-only luciferase reporter interference, late-stage follow-up, counter-screen for DAX1 inhibitor project, cell-based, luminescence, HEK293T, empty GAL4DBD, dose response (AID 588821)
row,Structure (SMILES),IC50
1,CSc1ccccc1C(=O)Nc1ccc2c(c1)OCO2,> 69.5 µM (inactive)
2,COc1ccc(OC)c(C(C)NC(=O)c2ccccc2Cl)c1 (centres undefined),> 69.5 µM (inactive)
3,O=C(Nc1ccc2c(c1)OCO2)c1ccc(C2SCC(=O)N2Cc2ccco2)cc1 (centres undefined),> 69.5 µM (inactive)
4,COc1ccc(OC)c(C(C)NC(=O)c2cccc3ccccc23)c1 (centres undefined),> 69.5 µM (inactive)
5,O=C(Cc1cccs1)Nc1ccc2c(c1)OCO2,> 69.5 µM (inactive)
6,O=C(Nc1ccc2c(c1)OCO2)c1ccc2ccccc2c1,0.202 µM
7,COc1ccc(OC)c(C(C)NC(=O)c2ccc(C)cc2)c1 (centres undefined),> 69.5 µM (inactive)
8,COc1ccc(OC)c(C(C)NC(=O)c2ccc(C(C)(C)C)cc2)c1 (centres undefined),> 69.5 µM (inactive)
9,COc1cccc(C(=O)NC(C)c2cc(OC)ccc2OC)c1 (centres undefined),> 69.5 µM (inactive)
10,COc1ccc(OC)c(C(C)NC(=O)c2ccccc2F)c1 (centres undefined),> 69.5 µM (inactive)
11,Cc1occc1C(=O)Nc1ccc2c(c1)OCO2,> 69.5 µM (inactive)
12,COc1ccc(OC)c(C(C)NC(=O)c2ccc(F)cc2)c1 (centres undefined),> 69.5 µM (inactive)
13,COc1ccc(OC)c(C(C)NC(=O)c2ccccc2C)c1 (centres undefined),> 69.5 µM (inactive)
14,COc1ccc(OC)c(C(C)NC(=O)c2cccc(F)c2)c1 (centres undefined),> 69.5 µM (inactive)
15,COc1ccc(OC)c(C(C)NC(=O)c2ccccc2)c1 (centres undefined),> 69.5 µM (inactive)
16,O=C(Nc1ccc2c(c1)OCO2)c1cccs1,> 69.5 µM (inactive)
17,COc1ccc(OC)c(C(C)NC(=O)c2ccc3c(c2)OCCO3)c1 (centres undefined),> 69.5 µM (inactive)
18,COc1ccc(OC)c(C(C)NC(=O)c2c(F)cccc2Cl)c1 (centres undefined),> 69.5 µM (inactive)
19,Cn1c(=O)n(C)c2cc(C(=O)Nc3ccc4c(c3)OCO4)ccc21,> 69.5 µM (inactive)
20,Cn1c(=O)n(C)c2cc(C(=O)Nc3ccc4c(c3)OCCO4)ccc21,> 69.5 µM (inactive)
21,CSc1ccccc1C(=O)Nc1ccc2c(c1)OCCO2,> 69.5 µM (inactive)
22,COc1ccc(OC)c(C(C)NC(=O)c2ccc(Cl)cc2)c1 (centres undefined),> 69.5 µM (inactive)
23,COc1ccc(OC)c(C(C)NC(=O)c2cccc(C)c2)c1 (centres undefined),> 69.5 µM (inactive)
24,O=C(Nc1ccc2c(c1)OCO2)c1ccc(C2SCC(=O)N2Cc2ccccc2)cc1 (centres undefined),> 69.5 µM (inactive)

# — PubChem BioAssay AID588821 (The Scripps Research Institute Molecular Screening Center, 2011)
